Data published in US20210177732A1, “COMBINATION OF EXTRACTS OF QUINQUINA AND OF LEONTOPODIUM ALPINUM AND OF THE MANGANESE SALT OF L-PYRROLIDONE CARBOXYLIC ACID IN THE TREATMENT OF ALOPECIA” (PIERRE FABRE DERMO-COSMETIQUE, priority 2018, published 2021).

Test system: Wnt/β-catenin pathway
Experiment: Activation of the Wnt/β-catenin pathway, TCF/LEF luciferase reporter in dermal papilla cells derived from human hair follicles
Format: cell-based
Settings: human follicular dermal papilla cells, 24 h incubation, Wnt3a 10 nM, Mn-PCA 500 μM, edelweiss 30 μg/mL; for Average RLU (luminescence due to luciferase expression): average of 3 donors (6 experiments), cinchona 10 μg/mL, combination at same concentrations, control 410.2; for activation of the Wnt-β-catenin pathway versus control: combination 10 μg/mL + 500 μM + 30 μg/mL
Description: The aim of this study is to evaluate the effects of the combination of an extract of cinchona, manganese salt of L-pyrrolidone carboxylic acid and an extract of Leontopodium alpinum on the activation of the Wnt/β-catenin pathway on dermal papilla cells derived from human hair follicles.
The studies are carried out on human cells derived from the dermal papillae of the follicles of three donors. The cells are inoculated in 96-well plates and cultured for 24 h with the necessary supplements. The cells are incubated with specific reagents in order to be transfected with a lentivirus (expressing the luciferase gene under the control of the Wnt/β-catenin promoter (TCF/LEF transcriptional response element). The transfected cells are incubated for 24 hours with the products to be tested, i.e. either with an extract of cinchona (10 μg/ml) diluted in DMSO, or with the manganese salt of L-pyrrolidone carboxylic acid (500 μM) diluted in water, or with an extract of Leontopodium alpinum (30 μg/ml) also diluted in water, or with the combination of the three compounds at the same concentrations as above. The cinchona used in this study is harvested in Ecuador, in the forests of Echeandia. The extract of Leontopodium alpinum tested in this study comes from a variety called Leontopodium alpinum Helvetia. The extract tested corresponds to the commercial material Alpaflor® from the supplier DSM. The manganese salt of L-pyrrolidone carboxylic acid tested in this study corresponds to the commercial material Mangalidone® from the supplier Solabia. It is obtained by cyclisation of glutamic acid of plant origin. Its INCI name is manganese PCA and its CAS number is 29193-02-2. A positive control (Wnt3a protein at 10 nM) is also tested. Activation of the Wnt/β-catenin pathway is highlighted by the quantification of luminescence due to luciferase expression.
A statistical analysis is performed, an intergroup comparison is made by a repeated measures ANOVA followed by Dunnett's post-test on the raw data.

Molecule	Average RLU (luminescence due to luciferase expression) [RLU]	activation of the Wnt-β-catenin pathway versus control
O=C1CC[C@@H](C(=O)[O-])N1.O=C1CC[C@@H](C(=O)[O-])N1.[Mn+2] [Mn-PCA (L), manganese salt of L-pyrrolidone carboxylic acid]	735.2	+77±17%
Wnt3a: positive control, Wnt3a protein at 10 nM (protein, UniProt P56704 19-352, looked up) Protein Wnt-3a: SYPIWWSLAVGPQYSSLGSQPILCASIPGLVPKQLRFCRNYVEIMPSVAEGIKIGIQECQHQFRGRRWNCTTVHDSLAIFGPVLDKATRESAFVHAIASAGVAFAVTRSCAEGTAAICGCSSRHQGSPGKGWKWGGCSEDIEFGGMVSREFADARENRPDARSAMNRHNNEAGRQAIASHMHLKCKCHGLSGSCEVKTCWWSQPDFRAIGDFLKDKYDSASEMVVEKHRESRGWVETLRPRYTYFKVPTERDLVYYEASPNFCEPNPETGSFGTRDRTCNVSSHGIDGCDLLCCGRGHNARAERRREKCRCVFHWCCYVSCQECTRVYDVHTCK	2366.9	+451±93%
